# Values of other authors as cited in patent US20260335309A1, “METHODS OF TREATING UVEAL MELANOMA” (IDEAYA BIOSCIENCES, INC., priority 2022, published 2026).
# Test system: uveal melanoma cells harboring GNAQ mutations
# Details: by targeting PKC/ERK1/2 and PKC/NF-xB pathways; X. Wu et al., Mol. Cancer Ther. 2012
smiles,measurement,value
CN1CCN(c2nc(C3=C(c4c[nH]c5ccccc45)C(=O)NC3=O)c3ccccc3n2)CC1 [sotrastaurin],inhibition of growth of uveal melanoma cells harboring GNAQ mutations,selectively inhibit the growth of uveal melanoma cells harboring GNAQ mutations
